The values below come from ChEMBL document CHEMBL5150041, “Discovery of novel N-(1-benzyl-1H-imidazol-2-yl)amide derivatives as melanocortin 1 receptor agonists” (Bioorg Med Chem Lett, 2022).

The EC50 is the concentration that produces a half-maximal response.

The target of data set [1] is T1, Melanocyte-stimulating hormone receptor (Homo sapiens, UniProt Q01726). In words: Agonist activity at human MC1R assessed as increase in alpha-MSH induced cAMP level. The data set is classed as functional. A general note: Changes in cAMP serve as a functional read-out for many G protein-coupled receptors.
Target sequence in this assay (Q01726 whole entry): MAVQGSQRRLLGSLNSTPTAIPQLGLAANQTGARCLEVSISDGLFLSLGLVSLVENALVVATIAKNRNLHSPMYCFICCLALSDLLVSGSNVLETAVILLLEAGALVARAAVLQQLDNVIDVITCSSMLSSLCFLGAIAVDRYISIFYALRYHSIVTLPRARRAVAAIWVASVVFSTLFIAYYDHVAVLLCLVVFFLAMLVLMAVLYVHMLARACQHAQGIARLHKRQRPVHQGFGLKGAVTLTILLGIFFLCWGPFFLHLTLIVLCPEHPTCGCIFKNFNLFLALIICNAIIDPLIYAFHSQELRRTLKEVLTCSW
Data set [2] addresses T1, Melanocyte-stimulating hormone receptor. The data set can be described thus: Agonist activity at human MC1R assessed as increase in alpha-MSH induced cAMP level at 10 uM relative to control. The data set is classed as functional.
Target sequence in this assay (Q01726 whole entry, looked up): as the sequence (Q01726 whole entry) above
Data set [3] is described as follows: Metabolic stability in human assessed as intrinsic clearance measured per mg protein. The data set is classed as ADME.
Data set [4] deals with T1, Melanocyte-stimulating hormone receptor. The data set can be described thus: Intrinsic agonist activity at human MC1R assessed as increase in alpha-MSH induced cAMP level by measuring maximum response relative to control. Type of data set: functional. The conditions noted are these: filed as agonist.
Target sequence in this assay (Q01726 whole entry, looked up): as the sequence (Q01726 whole entry) above

SMILES strings stand for the structures.

Consider `CC(C)(C)N1C[C@@H](C(=O)Nc2ccccc2Cc2ccccc2)[C@H](c2ccc(F)cc2F)C1`, for which, in data set [1], the EC50 is more than 10000 nM. Besides, in data set [2], the Activity was found to be 2.8%.
Turning to `CC(C)(C)N1C[C@@H](C(=O)Nc2nccn2Cc2ccccc2-c2ccccc2)[C@H](c2ccc(F)cc2F)C1`, the concentration for a half-maximal effect (EC50) in data set [1] worked out at 527 nM. The CL in data set [3] was determined as 860 µL/min. The Intrinsic activity in data set [4] was 79%.
In the case of `CC(C)(C)N1C[C@@H](C(=O)Nc2ncnn2Cc2ccccc2)[C@H](c2ccc(F)cc2F)C1`, the EC50 in data set [1] is more than 10000 nM. Besides, the Activity in data set [2] is 3.7%.
Turning to `CC(C)(C)N1C[C@@H](C(=O)Nc2nc3ccccc3n2Cc2ccccc2)[C@H](c2ccc(F)cc2F)C1`, the Activity in data set [2] (filed as agonist) came to 53%.
As for `CC(C)(C)N1C[C@@H](C(=O)Nc2nc3ccccc3n2-c2ccccc2)[C@H](c2ccc(F)cc2F)C1`, the EC50 in data set [1] is more than 10000 nM. The Activity in data set [2] was determined as 7%.
The corresponding values for `CC(C)(C)N1C[C@@H](C(=O)Nc2nccn2Cc2ccc(Cl)cc2)[C@H](c2ccc(F)cc2F)C1` are more than 10000 nM and 18%.
`CC(C)(C)N1C[C@@H](C(=O)Nc2nccn2Cc2ccccc2N2CCC(C(=O)O)CC2)[C@H](c2ccc(F)cc2F)C1`: in data set [1], the concentration giving a half-maximal response (EC50) came out at 460 nM. Besides, the CL in data set [3] is less than 10 µL/min. Also, the Intrinsic activity in data set [4] stood at 104%.
As to `Cn1c(NC(=O)[C@@H]2CN(C(C)(C)C)C[C@H]2c2ccc(F)cc2F)nc2ccccc21`, the EC50 in data set [1] is more than 10000 nM. In addition, the Activity in data set [2] came out at 2.5%.
With `CC(C)(C)N1C[C@@H](C(=O)Nc2nccn2Cc2ccc(C(F)(F)F)cc2N2CCC(C(=O)O)CC2)[C@H](c2ccc(F)cc2F)C1`, the EC50 in data set [1] was 77 nM. The CL in data set [3] was 25 µL/min. For the same molecule, the Intrinsic activity in data set [4] came out at 158%.
On to `CC(C)(C)N1C[C@@H](C(=O)Nc2nccn2Cc2ccccc2Cl)[C@H](c2ccc(F)cc2F)C1`, for which the EC50 in data set [1] amounted to 1270 nM. In addition, the Intrinsic activity in data set [4] turned out to be 65%.
As to `CC(C)(C)N1C[C@@H](C(=O)Nc2nccn2Cc2ccccc2)[C@H](c2ccc(F)cc2F)C1`, the EC50 in data set [1] came out at 4660 nM. Moreover, the Intrinsic activity in data set [4] came out at 54%.
Regarding `Cc1ccc(Cn2ccnc2NC(=O)[C@@H]2CN(C(C)(C)C)C[C@H]2c2ccc(F)cc2F)c(N2CCC(C(=O)O)CC2)c1`, the EC50 in data set [1] came out at 318 nM. Further, in data set [3], the CL turned out to be 28 µL/min. Further, the Intrinsic activity in data set [4] was 101%.
As for `CC(C)(C)N1C[C@@H](C(=O)Nc2nc3ccccc3n2CCc2ccccc2)[C@H](c2ccc(F)cc2F)C1`, the EC50 in data set [1] is more than 10000 nM. In addition, in data set [2], the Activity stood at 7.5%.
As for `CC(C)(C)N1C[C@@H](C(=O)Nc2nccn2Cc2ccccc2N2CCC(CC(=O)O)CC2)[C@H](c2ccc(F)cc2F)C1`, in data set [1], the concentration for a half-maximal effect (EC50) worked out at 1980 nM. Besides, the CL in data set [3] was determined as 39 µL/min. Further, in data set [2] (filed as agonist), the Activity turned out to be 64%.
Take `CC(C)(C)N1C[C@@H](C(=O)Nc2nccn2Cc2ccccc2N2CCCCC2)[C@H](c2ccc(F)cc2F)C1.Cl`: the concentration giving a half-maximal response (EC50) in data set [1] was determined as 339 nM. Besides, in data set [3], the CL is 610 µL/min. In data set [4], the Intrinsic activity came to 77%.
For `CC(C)(C)N1C[C@@H](C(=O)Nc2nccn2Cc2ccccc2N2CCOCC2)[C@H](c2ccc(F)cc2F)C1.Cl`, in that order: 219 nM, 660 µL/min and 86%.
Regarding `CC(C)(C)N1C[C@@H](C(=O)Nc2nccn2Cc2cccc(Cl)c2)[C@H](c2ccc(F)cc2F)C1`, the EC50 in data set [1] turned out to be 1270 nM. The Intrinsic activity in data set [4] is 50%.
For `CC(C)(C)N1C[C@@H](C(=O)Nc2nccn2Cc2ccccc2N2CCC(C(N)=O)CC2)[C@H](c2ccc(F)cc2F)C1.Cl`, in data set [1], the EC50 is 386 nM. The CL in data set [3] stood at 450 µL/min. Besides, in data set [4], the Intrinsic activity worked out at 80%.
